Measurements: patent US10564164B2, “Fluorescent probe, singlet oxygen detection agent, and singlet oxygen detection method” (Osaka University, priority 2014, dated 2020)
Read-outs that look alike come from different tables or passages of the source.

Columns and labels:
[1] = cited from earlier work
[2] = Time-resolved phosphorimetry (singlet oxygen generation quantum yield); type: physicochemical; conditions: 250 μM in DMSO and methanol (1:9); 532 nm excitation
Method: A sample of Rose Bengal and the Si-Me of Comparative Example 1 was prepared in a DMSO and methanol (1:9) solution placed in a 1×1×4 cm^3 quartz cell (the concentration of Rose Bengal=21.5 μM, and the concentration of Si-Me=250 μM).
Second harmonic oscillation (532 nm, 4 nsfwhm, 5.0 mJ·cm^−2 pulse^−1) generated by a Q-switched Nd YAG laser (Surelite II-10, Continuum) was used as an excitation light. The light-induced luminescence of the sample cell was condensed on a quartz lens via a monochromator, and subsequently introduced into a near-infrared photomultiplier tube module (H10330A-75; Hamamatsu Photonics K.K.).
After the amplification using a 350-MHz amplifier unit (SR445A; Stanford Research Systems), the output of the photomultiplier tube was sent to a gated photon counter (SR400; Stanford Research Systems) under direct PC control via a GPIB interface. In order to measure the lifetime of ^1O2, measurement was performed by changing the delay time between 0 to 50 μseconds at a gate width of 1.0 μsecond, and accumulating the results (repeated 5 times).

HeLa cells = assay: Selectivity of photosensitizer: intracellular singlet oxygen detection with Si-DMA; type: cell-based; conditions: HeLa cells, Si-DMA probe; 60-second light irradiation; photosensitizer as labelled
Method: Subsequently, a quick protocol provided by Molecular Probe® for introducing CellROX Green was followed. Using diluted Si-DMA and Si-Me, incubation was performed for 30 minutes to two hours by an experiment. To introduce a photosensitizer, 150 μg/mL of 5-aminolevulinic acid (5-ALA) or 10 LM TMPyP4 were incubated for four hours and 24 hours, respectively. As a result, as previously reported, the conversion of 5-ALA into protoporphyrin IX (PpIX) in the mitochondria was confirmed by the fluorescence luminescence of PpIX.
A KillerRed vector was expressed in accordance with a general Lipofectamine® 2000 (Invitrogen) protocol. More specifically, 2×10^5 Hela cells were subcultured in a 35-mm glass bottom dish. The cells reached about 50% confluent in the next day.
Subsequently, a mixed solution of Lipofectamine reagent and DNA vector was obtained by mixing 6 μL Lipofectamine® 2000 with 7 μL pKillerRed-dMitovector ([…], Evrogen, catalog No. FP964) in an Opti-MEM solution (Gibco). Thereafter, the resulting solution was incubated for 20 minutes at room temperature. 300 μL of the mixed solution was added to a growth medium, and incubated for 24 hours. The expression of KillerRed was confirmed by monitoring KillerRed fluorescence using a wide-view microscope. […]
Further, on the night before the treatment, 0.2×10^6 HeLa cells were seeded on a 35-mm dish, and pKillerRed-dMito vector (Evrogen) was introduced using Lipofectaimine®2000 (Invitrogen®), followed by 24-hour incubation as described above, thereby preparing HeLa cells containing […]. […] Light irradiation was performed for 30 seconds simultaneously at 0.5 W/cm^2 and 0.6 W/cm^2 using a 640-/532-nm laser (Coherent) and a wide-view fluorescence microscope system mounted in an IX81 inverted microscope (Olympus Corporation). […]
Further, in this Experiment Example, 60-second light irradiation was performed using three kinds of photosensitizers, and an average number of pseudo colors appeared in the photo and an increase thereof were measured. […]

SMILES: O=C1OC2(c3cc(Cl)c(O)cc3Oc3cc(O)c(Cl)cc32)c2ccccc21 [2,7-dichlorofluorescein]
- ΦΔ (singlet oxygen generation quantum yield) ([1]; comparison value for SOSG chromophore): 0.06

SMILES: Cc1ccccc1C1=C2C=CC(=[N+](C)C)C=C2[Si](C)(C)c2cc(N(C)C)ccc21 [Si-Me]
- ΦΔ (singlet oxygen generation quantum yield) [2]: about 0.02

SMILES: C[n+]1ccc(-c2c3nc(c(-c4cc[n+](C)cc4)c4ccc([nH]4)c(-c4cc[n+](C)cc4)c4nc(c(-c5cc[n+](C)cc5)c5ccc2[nH]5)C=C4)C=C3)cc1 [TMPyP4, tetra-(N-methyl-4-pyridyl)porphyrin, reference compound]
- average number of pseudo colors during light irradiation (Si-DMA fluorescence) (HeLa cells): decreased

SMILES: O=C([O-])c1c(Cl)c(Cl)c(Cl)c(Cl)c1-c1c2cc(I)c(=O)c(I)c-2oc2c(I)c([O-])c(I)cc12.[Na+].[Na+] [Rose Bengal]
- ΦΔ (singlet oxygen generation quantum yield) ([1]; in methanol, reference value): 0.76
